The subject of one data set is RAP-1. Briefly: RAP-1 activation pulldown assay in TRiPS cells. The format is cell-based, human. The following applies: 15 μg/ml. As to the method:
Day 10 TRiPS cells, 1×10^6, were incubated with 15 μg/ml of the compound of formula II (Cpd II) for 1 hour at 37° C. Then, the cells were incubated with CD3/CD28 beads (1 μl per 100,000 cells) (obtained from Dynal) for 10 minutes at 37° C. The cells were then lysed with a mild buffer (supplied with Pierce EZ-Detect activation kit described below) to produce cell extracts. Protein concentrations of the resulting extracts were determined by bicinchoninic acid (BCA) assay (Pierce) and placed on ice for immediate use.
Pulldown assays were performed using Pierce EZ-Detect activation kits according to the manufacturer's instructions utilizing GST-RAF-1-RBD and GST-RalGDS-RBD for Ras and RAP-1 respectively. Briefly, 400 μg total protein from each extract was combined with recombinant protein and glutathione resin and incubated at 4° C. for one hour with gentle shaking The resin was then washed to remove unbound protein and the activated Ras and RAP-1 proteins were removed by boiling in the presence of SDS-PAGE loading dye containing reducing agent. Ras and RAP-1 western blots were performed to visualize the proteins using antibodies supplied with the kit. Densitometry of the X-ray films was done by scanning and computer analysis.

The subject of the next data set is c-Jun. Briefly: c-Jun in VEGF-treated HUVECs (TransAM AP-1 assay). The format is cell-based, human. Particulars: Cpd II at 15 μg/ml and 5 μg/ml. As to the method:
The amount of c-Jun was determined using a TransAM™ AP-1 Family Transcription Factor Assay Kit and a Nuclear Extract Kit from Active Motif North America, Carlsbad, Calif., according to manufacturer's instructions. Briefly, a nuclear extract of the cells was prepared using the Nuclear Extract Kit. Then, the nuclear extract was added to the wells of a 96-well plate in which oligonucleotide containing a TPA-responsive element (TRE) was immobilized. Activator protein-1 (AP-1) dimers contained in the nuclear extract were bound to this oligonucleotide and were detected using an antibody specific for c-Jun. A secondary antibody conjugated to horseradish peroxidase (HRP) was next added to provide a colorimetric readout that was quantified by spectrophotometry (measurement at 450 nm).

Another data set deals with IL-8. Briefly: IL-8 release from LPS-stimulated THP-1 monocytes (ELISA). The format is cell-based. Particulars: THP-1, LPS 200 ng/ml; Cpd II 15 μg/ml, Dex 10 μM. How it is done:
(§1) THP-1 is a monocyte cell line obtained from American Type Culture Collection (ATCC) (catalog no. TIB-202). […] After 1 hour, lipopolysaccharide (LPS) (obtained from Sigma) was added to the cultures to give a final concentration of 200 ng/ml, and the cells were then incubated for an additional 4 hours or for an additional 24 hours. After the incubation, the cells were centrifuged, and the supernatants were collected. The concentrations of IL-8 and TNFα in the supernatants were determined by ELISA.
The concentrations of IL-8 in the supernatants were determined by ELISA performed as described in Example 4.
On the technique in general: ELISA stands for enzyme-linked immunosorbent assay.

The next data set concerns TCR-positive cells. Briefly: Annexin staining of TCR-positive cells (flow cytometry, cell death). The format is cell-based, human. Particulars: PHA 5 μg/ml plus 50 μg/ml; PHA alone 67%. As to the method:
(§2) After this incubation, PHA was added to give a final concentration of 5 μg/ml, and the cells were incubated for an additional 72 hours at 37° C., 5% CO2. All cultures were performed in triplicate. Cells were then removed by centrifugation at 1000 rpm for 10 minutes.
The cells were further analyzed by flow cytometry Annexin was used to determine populations of dead or dying cells. Anti-CD69 antibody was used to establish the level of cellular activation. Antibody to T-cell receptor αβ (TCR) was also used. Recombinant Annexin 5 (PE and FITC conjugates) and the antibodies were all purchase from Caltag (Burlingham, Calif.) and used following the manufacturer's recommendations.
A general note: In flow cytometry, cells or beads pass a laser one at a time.

Data set [1] deals with Jurkat T-lymphocyte leukemia cell line. In words: Jurkat cell viability (ETH-D1 / calcein AM). Particulars: Jurkat cells, 72 hours, control 20.85% ± 1.42%. Format: cell-based. As to the method:
The Jurkat T-lymphocyte leukemia cell line was obtained from American Type Culture Collection (ATCC), Rockville, Md. (catalog no. TIB-152). Jurkat cells, at 1×10^5 cells/ml, were cultured at 37° C. and 5% CO2 in IMDM medium (ATCC) with 10% FCS for 72 hours with 7.5 μg/ml or 15 μg/ml of the compound of formula II (Cpd II). Following the incubation, the cells were washed with Hepes buffered saline, split into three equal volumes, and then incubated with 5 μM ethidium bromide dimer-1 (ETH-D1) (obtained from Molecular Probes) and 5 μM calcein AM solution (obtained from Promega) for one hour at 37° C. and 5% CO2 in 96-well culture plates to assay for cell viability. The fluorescence in each well was measured using a plate reader at excitation/emission 485/530 nm and 530/645 nm. Relative percentage of dead to live cells was calculated by dividing ETH-D1 fluorescence by calcein AM fluorescence.

The test system of data set [2] is TNFα. Briefly: TNFα release from LPS-stimulated THP-1 monocytes (ELISA). The format is cell-based. The following applies: THP-1, LPS 200 ng/ml; Cpd II 15 μg/ml, Dex 10 μM. As to the method: as §1
The TNFα ELISA was performed as described in Example 2.

The test system of data set [3] is TNFα. Briefly: TNFα release by PHA-stimulated PBL (ELISA). The format is cell-based, human. The following applies: Example 3, GR191 PBL, Cpd II 15 and 50 μg/ml, Dex 10 μM, 72 hours, FIG. 7. As to the method:
as §2
The TNFα ELISA was performed as described in Example 2 using matched pair antibodies from Pierce Endogen (2 μg/ml for the coating antibody and 250 ng/ml for the second antibody).

The subject of the next data set is NFκB. Briefly: Activated NFκB in VEGF-treated HUVECs (TransAM assay). Particulars: Cpd II at 15 μg/ml and 5 μg/ml. The format is cell-based, human. How it is done: Passage 5 HUVECs, human source lot number 8750, were grown to confluence in 25 cm^2 flasks in EGM-2 medium. The following additives were added to the flasks (total volume of 5 ml/flask) in EGM-2 medium containing 2% FCS, GA1000 (gentamycin), heparin and ascorbic acid (all from Cambrex): 1 μg/ml of the compound of formula II (Cpd II); 5 μg/ml Cpd II; 15 μg/ml of Cpd II; 15 μg/ml methylphenidate (MP); or 10 μM LY 294002. The flasks were incubated overnight at 37° C., 5% CO2. After this incubation, VEGF was added to give a final concentration 10 ng/ml, and the flasks were incubated for an additional 30 minutes.
Then, the amount of NFκB was determined using a TransAM™ NFκB p65/NFκB p50 Transcription Factor Assay Kit and a Nuclear Extract Kit from Active Motif North America, Carlsbad, Calif., according to the manufacturer's instructions. Briefly, a nuclear extract of the cells was prepared using the Nuclear Extract Kit. Then, the nuclear extract was added to the wells of the 96-well plate of the TransAM™ kit. […] Then, an antibody directed against the NFκB p65 or p50 subunit was added, and the NFκB complex bound to the oligonucleotide was detected. A secondary antibody conjugated to horseradish peroxidase (HRP) was next added to provide a colorimetric readout that was quantified by spectrophotometry (measurement at 450 nm).

The conditions of data set [4]: mice; cited from earlier work.

As to `COC(=O)C(c1ccc(-c2ccccc2)cc1)C1CCCCN1` (stereo not shown) [Cpd II], the “inhibition of RAP-1” value with RAP-1 is recorded as “appeared to inhibit RAP-1”. In addition, the “increase in the amount of c-Jun” value in the data set on c-Jun is “completely eliminated the increase in the amount of c-Jun”. Also, the “release of IL-8 from the LPS-stimulated monocytes” value with IL-8 was “significantly inhibited the release of IL-8”. For the same compound, the “Annexin staining of TCR-positive cells (cell death)” value in the data set with TCR-positive cells came out at 87%. Also, the “Relative Percentage Dead/Live” value is listed as 16.74% ± 2.15% in [1] (7.5 μg/ml) and 40.79% ± 1.81% in data set [1] (15 μg/ml). Also, in the data set with TNFα [2], the “release of TNFα from the LPS-stimulated monocytes” value is on record as “significantly inhibited the release of TNFα”. Moreover, in the data set on TNFα [3], the “release of TNFα from PHA-stimulated PBL” value is “significantly inhibited the release of TNFα”. Further, the “amount of activated NFκB” value with NFκB is given as “reduced the amount of activated NFκB back to basal levels”.

With `COC(=O)C(c1ccccc1)C1CCCCN1` (stereo not shown) [methylphenidate], in [4], the carcinogenicity result was “some evidence that methylphenidate is carcinogenic in mice”.

(Values after patent US8076485B2, “Methylphenidate derivatives and uses of them” (priority 2005, dated 2011).)
